# Assay results from patent US20240197652A1, “KETAMINE IN THE TREATMENT OF […]” (Awakn LS Europe Holdings Limited, priority 2021, published 2024).
# Tests used:
# Format in all cases: in vivo, human
# [1] = tested on: subjects with CSBD; assay: Sensitivity to reward (SPSRQ), Example 10; settings: for Sensitivity to Reward at 2-week follow up: after 100 mg racemic ketamine sublingual; for Sensitivity to Reward, pre-administration: baseline before 100 mg racemic ketamine sublingual; for % change in Sensitivity to Reward: pre-administration to 2-week follow up, 100 mg racemic ketamine sublingual
# Procedure: Reward sensitivity was assessed using the SPSRQ. Behavioural tasks, EEG measurements, and subjective experience assessments were also completed.
# A study was completed on the use of ketamine to treat CSBD. Subjects were assessed for CSBD using the Problematic Pornography Use Scale (PPUS) and were included if they received an PPUS score greater than 3. Three subjects in total were included (CSB1-CSB3). All three were administered sublingual lozenges comprising 100 mg of racemic ketamine.
# The treatment protocol commenced in the same way as disclosed in the ketamine in subjects with gambling disorder study completed in EXAMPLE 7, with the exceptions outlined as follows: No behavioural tasks were completed. Self-report measures completed during EXAMPLE 10 included the Emotional Intimacy Measure, the Childhood Trauma Questionnaire, the Generalised Anxiety Disorder-7 (GAD-7), the Morningness-Eveningness Questionnaire (MEQ), and the Problematic Pornography Questionnaire (PPQ), the Acceptance and Action Questionnaire, and the Psychological and Interpersonal Relationship Scales (PAIRS).
# [2] = tested on: subjects with gambling disorder; assay: Problem Gambling Severity Index (PGSI), Example 7; settings: for PGSI score at 2-week follow up / PGSI classification at two-week follow up: after 100 mg racemic ketamine sublingual; for PGSI score, pre-administration / PGSI classification, pre-administration: baseline before 100 mg racemic ketamine sublingual; for % change in PGSI score: pre-administration to 2-week follow up, 100 mg racemic ketamine sublingual
# Procedure: A study was completed on the use of ketamine to treat gambling disorder. Subjects were assessed for gambling disorder using the PGSI. Subjects were included if they received a PGSI score greater than 3. Five subjects in total were included (G1-G5). All five subjects were administered ketamine. Blood samples were collected from all five subjects. Blood samples were analysed to determine ketamine and ketamine metabolite levels, and each subject was assessed post-administration to determine the effectiveness of the treatment.
# (§1) The study spanned a total of 30 days (not counting initial contact and prescreening). Prescreening of all subjects was conducted by phone, and subjects recorded self-report measures, including the Sensitivity to Punishment and Sensitivity to Reward Questionnaire (SPSRQ) and the Gambling Related Cognitions Questionnaire. Prior to beginning treatment, each subject completed the Beck Depression Inventory (BDI) to determine a baseline depression score. Total scores of 0-13 are minimal, 14-19 are mild, 20-28 are moderate, and 29-63 are severe (Beck, Steer, and Brown, 1996).
# On Day 3, each subject returned on-site and was administered ketamine. 100 mg of racemic ketamine was administered in as sublingual lozenges.
# (§2) The remaining follow-up sessions were completed online. Follow-up 1 was completed on Day 4, Follow-up 2 on Day 14, and Follow-up 3 on Day 30. At each follow-up session, the same self-report measures and behavioural tasks were completed.
# The PGSI classifies potential problem gamblers in four categories based on scores. A score of 0 is a non-problem gambler, a score of between 1 and 2 is a low-risk gamber (mild), a score of 3-7 is a moderate-risk gambler (moderate), and a score of 8 or above is a problem gambler (severe). Subject G4 was classified as a moderate-risk (moderate) gambler pre-administration, and at the two-week follow up was classified as a low-risk (mild) gambler. Subject G5 was classified as a problem (severe) gambler pre-administration, and at the two-week follow up was classified as a low-risk (mild) gambler
# [3] = tested on: subjects with CSBD; assay: Adverse events, KSET, Example 10; settings: three CSBD subjects; 100 mg racemic ketamine sublingual
# [4] = tested on: subjects with gambling disorder; assay: Gambling Related Cognitions Scale (GRCS), gambling expectancy, Example 7; settings: for problem gambling expectancy score (GRCS) at 2-week follow up: after 100 mg racemic ketamine sublingual; for problem gambling expectancy score (GRCS), pre-administration: baseline before 100 mg racemic ketamine sublingual; for % change in problem gambling expectancy: pre-administration to 2-week follow up, 100 mg racemic ketamine sublingual
# Procedure: as §1, §2
# The five-factor Gambling Related Cognitions Scale (GRCS) was also assessed. The GRCS evaluates gambling-related cognitive distortions for all types of gamblers, regardless of their gambling activities (poker, slots, horse racing, etc.) (Levesque et al., 2017). The GRCS contains five main domains, including inability to stop, expectancies, predictive control, illusion of control, and interpretative bias (Muela, Navas, and Perales, 2021). Gambling expectancy and inability to stop were predictive of problem gambling.
structure (smiles),measurement,setting,value
"CNC1(c2ccccc2Cl)CCCCC1=O (racemic) [ketamine, 2-(2-chlorophenyl)-2-(methylamino)-cyclohexanone]",Sensitivity to Reward at 2-week follow up,[1]; subject CSB1,9
same,"Sensitivity to Reward, pre-administration",[1]; subject CSB1,10
same,% change in Sensitivity to Reward,[1]; subject CSB1,−10%
same,Sensitivity to Reward at 2-week follow up,[1]; subject CSB2,15
same,"Sensitivity to Reward, pre-administration",[1]; subject CSB2,15
same,Sensitivity to Reward at 2-week follow up,[1]; subject CSB3,9
same,"Sensitivity to Reward, pre-administration",[1]; subject CSB3,17
same,% change in Sensitivity to Reward,[1]; subject CSB3,−47.06%
same,PGSI score at 2-week follow up,[2]; subject G1,5
same,"PGSI score, pre-administration",[2]; subject G1,4
same,% change in PGSI score,[2]; subject G1,+25%
same,PGSI score at 2-week follow up,[2]; subject G2,11
same,"PGSI score, pre-administration",[2]; subject G2,16
same,% change in PGSI score,[2]; subject G2,−31.25%
same,PGSI score at 2-week follow up,[2]; subject G3,18
same,"PGSI score, pre-administration",[2]; subject G3,21
same,% change in PGSI score,[2]; subject G3,−14.29%
same,PGSI classification at two-week follow up,[2]; subject G4,low-risk (mild) gambler (a score of between 1 and 2 is a low-risk gamber (mild))
same,PGSI score at 2-week follow up,[2]; subject G4,1
same,"PGSI classification, pre-administration",[2]; subject G4,moderate-risk (moderate) gambler (a score of 3-7 is a moderate-risk gambler (moderate))
same,"PGSI score, pre-administration",[2]; subject G4,3
same,% change in PGSI score,[2]; subject G4,−66.67%
same,PGSI classification at two-week follow up,[2]; subject G5,low-risk (mild) gambler (a score of between 1 and 2 is a low-risk gamber (mild))
same,PGSI score at 2-week follow up,[2]; subject G5,2
same,"PGSI classification, pre-administration",[2]; subject G5,problem (severe) gambler (a score of 8 or above is a problem gambler (severe))
same,"PGSI score, pre-administration",[2]; subject G5,11
same,% change in PGSI score,[2]; subject G5,−81.82%
same,course of adverse events,[3],"All adverse events were transient, and resolved two hours post-lozenge"
same,overall tolerability,[3],"well-tolerated, with no drop-outs"
same,unexpected adverse reactions (KSET),[3],No unexpected adverse reactions were observed
same,problem gambling expectancy score (GRCS) at 2-week follow up,[4]; subject G1,5.5
same,"problem gambling expectancy score (GRCS), pre-administration",[4]; subject G1,5
same,% change in problem gambling expectancy,[4]; subject G1,+10%
same,problem gambling expectancy score (GRCS) at 2-week follow up,[4]; subject G2,2.5
same,"problem gambling expectancy score (GRCS), pre-administration",[4]; subject G2,5.5
same,% change in problem gambling expectancy,[4]; subject G2,−54.55%
same,problem gambling expectancy score (GRCS) at 2-week follow up,[4]; subject G3,4.5
same,"problem gambling expectancy score (GRCS), pre-administration",[4]; subject G3,5.25
same,% change in problem gambling expectancy,[4]; subject G3,−14.29%
same,problem gambling expectancy score (GRCS) at 2-week follow up,[4]; subject G4,2.5
same,"problem gambling expectancy score (GRCS), pre-administration",[4]; subject G4,3.75
same,% change in problem gambling expectancy,[4]; subject G4,−33.33%
same,problem gambling expectancy score (GRCS) at 2-week follow up,[4]; subject G5,1
same,"problem gambling expectancy score (GRCS), pre-administration",[4]; subject G5,1.25
same,% change in problem gambling expectancy,[4]; subject G5,−20%
